Among the data in PMC11219871, “Epigenetic-based differentiation therapy for Acute Myeloid Leukemia” (Nature Communications, 2024) are IC50 and inhibition values, retold here.

As usually defined, the IC50 is the concentration that gives 50% inhibition. The term inhibition denotes the share of the control response that was lost under treatment. Low values mean a response near the control, high ones a response far below the control.

One test deals with T1, HDAC7 (Homo sapiens, UniProt Q8WUI4).
T1 construct: purchased Eurofins (contracted assay service)
T1 sequence (Q8WUI4 1-952): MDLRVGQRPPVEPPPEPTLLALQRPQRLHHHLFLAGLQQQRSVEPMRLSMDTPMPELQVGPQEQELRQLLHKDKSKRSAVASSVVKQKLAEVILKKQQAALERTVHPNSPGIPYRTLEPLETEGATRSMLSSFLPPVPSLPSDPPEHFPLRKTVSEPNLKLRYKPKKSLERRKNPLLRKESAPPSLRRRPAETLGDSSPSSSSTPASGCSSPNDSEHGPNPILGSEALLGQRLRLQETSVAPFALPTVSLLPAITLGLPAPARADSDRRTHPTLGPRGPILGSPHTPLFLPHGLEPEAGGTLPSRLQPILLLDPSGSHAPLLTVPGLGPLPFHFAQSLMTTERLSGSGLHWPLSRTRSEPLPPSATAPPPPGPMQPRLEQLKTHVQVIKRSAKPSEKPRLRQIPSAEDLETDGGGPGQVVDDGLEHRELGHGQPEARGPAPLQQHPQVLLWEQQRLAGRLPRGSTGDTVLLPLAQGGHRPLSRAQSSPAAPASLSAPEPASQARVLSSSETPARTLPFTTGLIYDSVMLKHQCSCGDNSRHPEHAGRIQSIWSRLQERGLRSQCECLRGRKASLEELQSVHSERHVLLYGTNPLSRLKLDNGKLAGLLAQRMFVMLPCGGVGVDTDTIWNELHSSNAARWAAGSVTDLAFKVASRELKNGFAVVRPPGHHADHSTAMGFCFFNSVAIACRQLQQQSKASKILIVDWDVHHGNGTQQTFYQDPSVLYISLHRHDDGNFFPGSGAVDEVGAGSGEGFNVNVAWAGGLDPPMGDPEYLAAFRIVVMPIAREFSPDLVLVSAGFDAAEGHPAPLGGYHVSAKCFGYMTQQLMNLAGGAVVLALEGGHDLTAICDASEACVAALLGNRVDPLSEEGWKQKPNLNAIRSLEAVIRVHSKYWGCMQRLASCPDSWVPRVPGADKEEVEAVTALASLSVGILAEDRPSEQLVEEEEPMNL
The experiment in a line: HDAC assay (Eurofins). The test is classed as biochemical.

The target of the next test is T2, WDR9 (Homo sapiens, UniProt Q9NSI6).
T2 construct: purchased BPS Bioscience (contracted assay service)
Description: Epigenetic panel (BPS Bioscience). The test is classed as binding. The text has this:
(§1) The selectivity of CM-444 and CM-1758 against other epigenetic targets, including histone demethylase (JMJD2A, JMJD2B, JMJD2C, JMJD2D, JMJD2E, JMJD3, JMJD1A, LSD1, Jarid1A, Jarid1B, Jarid1C, FBXL10, FBXL11, JHDM1D, JMJD1B, PHF8, LSD2 and UTX); histone acetyltransferases (GCN5, P300); histone methyltransferases (G9a, GLP, MLL1, SET7/9, SUV39H1, SUV39H2, PRMT1, PRMT3, PRMT4, PRMT5, PRMT6, PRMT8, PRMT9, NSD1, NSD2, EZH1, EZH2, SETDB1, SETD2, SET8, SUV4-20H1, SMYD2, SMYD3, DOT1L, EZH2 (A677G), EZH2 (A677G), EZH2 (A738T), EZH2 (Y641S), EZH2 (P132S), EZH2 (Y641C), EZH2 (Y641F), EZH2 (Y641H), EZH2 (Y641N)); bromodomains (ATAD2B, ATAD2A, BRD1, BRD9, BPTF/FALZ, CeCR2, BRPF3, BRD3 (BD1 + BD2), BAZ2B, WDR9, TAF1 (BD2), TAF1L (BD2), TAF1L (BD1 + BD2), BRD2 (BD1), BRD2 (BD2), BRD2 (BD1 + BD2), BRD3 (BD1), BRD3 (BD2), BRD4 (BD1), BRD4 (BD2), BRD4 (BD1 + BD2), BRDT (BD1), BRDT (BD1 + BD2), CREBBP, SMARCA2A, SMARCA4/BRG1); DNA methyltranferases (DNMT1, DNMT3A/3L and DNMT3B/3L), and sirtuin histone deacetylases (SIRT1, SIRT2, SIRT3, SIRT5 and SIRT6), were determined by BPS Bioscience (http://www.bpsbioscience.com/index.ph). Binding experiments were performed in duplicate at a concentration of 10 μM.

A further test deals with T3, ATAD2A (Homo sapiens, UniProt Q6PL18).
T3 construct: purchased BPS Bioscience; Eurofins (HDAC4, 5, 7-11)
The experiment in a line: Epigenetic panel (BPS Bioscience). The test is classed as binding.
From the text: as §1

The next test addresses T4, SMARCA4/BRG1 (Homo sapiens, UniProt P51532).
T4 construct: purchased BPS Bioscience; Eurofins (HDAC4, 5, 7-11)
Description: Epigenetic panel (BPS Bioscience). The test is classed as binding.
From the text: as §1

Another test concerns the target T5, BRD2 (BD1+BD2) (Homo sapiens, UniProt P25440).
T5 construct: purchased BPS Bioscience; Eurofins (HDAC4, 5, 7-11)
The experiment in a line: Epigenetic panel (BPS Bioscience). Type of test: binding.
From the text: as §1

The next test concerns the target T6, CeCR2 (Homo sapiens, UniProt Q9BXF3).
T6 construct: purchased BPS Bioscience (contracted assay service)
Description: Epigenetic panel (BPS Bioscience). Type of test: binding.
From the text: as §1

A further test concerns the target T7, BRD9 (Homo sapiens, UniProt Q9H8M2).
T7 construct: purchased BPS Bioscience (contracted assay service)
T7 sequence (Q9H8M2 1-597): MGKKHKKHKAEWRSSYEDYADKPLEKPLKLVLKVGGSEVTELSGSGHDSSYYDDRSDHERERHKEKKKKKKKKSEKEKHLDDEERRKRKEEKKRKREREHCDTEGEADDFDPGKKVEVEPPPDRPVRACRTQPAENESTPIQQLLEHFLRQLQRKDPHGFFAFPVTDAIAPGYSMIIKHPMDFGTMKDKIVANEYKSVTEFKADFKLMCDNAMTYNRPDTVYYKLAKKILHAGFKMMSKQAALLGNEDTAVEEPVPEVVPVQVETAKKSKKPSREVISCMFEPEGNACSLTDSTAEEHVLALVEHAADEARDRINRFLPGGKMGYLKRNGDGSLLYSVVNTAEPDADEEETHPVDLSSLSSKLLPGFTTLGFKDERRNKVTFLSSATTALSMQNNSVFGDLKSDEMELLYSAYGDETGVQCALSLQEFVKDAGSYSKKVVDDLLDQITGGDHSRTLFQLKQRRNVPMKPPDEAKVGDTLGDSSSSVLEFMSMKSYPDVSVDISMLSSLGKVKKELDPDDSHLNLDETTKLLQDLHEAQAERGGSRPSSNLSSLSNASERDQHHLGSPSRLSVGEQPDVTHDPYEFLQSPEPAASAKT
Description: Epigenetic panel (BPS Bioscience). Type of test: binding.
From the text: as §1

The target of the next test is T8, BRD1 (Homo sapiens, UniProt O95696).
T8 construct: purchased BPS Bioscience; Eurofins (HDAC4, 5, 7-11)
Description: Epigenetic panel (BPS Bioscience). Type of test: binding.
From the text: as §1

For a further test, the target named is T9, CREBBP (Homo sapiens, UniProt Q92793).
T9 construct: purchased BPS Bioscience; Eurofins (HDAC4, 5, 7-11)
Description: Epigenetic panel (BPS Bioscience). The test is classed as binding.
From the text: as §1

The target in another test is T10, BRD3 (BD1+BD2) (Homo sapiens, UniProt Q15059).
T10 construct: purchased BPS Bioscience; Eurofins (HDAC4, 5, 7-11)
Description: Epigenetic panel (BPS Bioscience). The test is classed as binding.
From the text: as §1

T6 sequence (Q9BXF3 whole entry): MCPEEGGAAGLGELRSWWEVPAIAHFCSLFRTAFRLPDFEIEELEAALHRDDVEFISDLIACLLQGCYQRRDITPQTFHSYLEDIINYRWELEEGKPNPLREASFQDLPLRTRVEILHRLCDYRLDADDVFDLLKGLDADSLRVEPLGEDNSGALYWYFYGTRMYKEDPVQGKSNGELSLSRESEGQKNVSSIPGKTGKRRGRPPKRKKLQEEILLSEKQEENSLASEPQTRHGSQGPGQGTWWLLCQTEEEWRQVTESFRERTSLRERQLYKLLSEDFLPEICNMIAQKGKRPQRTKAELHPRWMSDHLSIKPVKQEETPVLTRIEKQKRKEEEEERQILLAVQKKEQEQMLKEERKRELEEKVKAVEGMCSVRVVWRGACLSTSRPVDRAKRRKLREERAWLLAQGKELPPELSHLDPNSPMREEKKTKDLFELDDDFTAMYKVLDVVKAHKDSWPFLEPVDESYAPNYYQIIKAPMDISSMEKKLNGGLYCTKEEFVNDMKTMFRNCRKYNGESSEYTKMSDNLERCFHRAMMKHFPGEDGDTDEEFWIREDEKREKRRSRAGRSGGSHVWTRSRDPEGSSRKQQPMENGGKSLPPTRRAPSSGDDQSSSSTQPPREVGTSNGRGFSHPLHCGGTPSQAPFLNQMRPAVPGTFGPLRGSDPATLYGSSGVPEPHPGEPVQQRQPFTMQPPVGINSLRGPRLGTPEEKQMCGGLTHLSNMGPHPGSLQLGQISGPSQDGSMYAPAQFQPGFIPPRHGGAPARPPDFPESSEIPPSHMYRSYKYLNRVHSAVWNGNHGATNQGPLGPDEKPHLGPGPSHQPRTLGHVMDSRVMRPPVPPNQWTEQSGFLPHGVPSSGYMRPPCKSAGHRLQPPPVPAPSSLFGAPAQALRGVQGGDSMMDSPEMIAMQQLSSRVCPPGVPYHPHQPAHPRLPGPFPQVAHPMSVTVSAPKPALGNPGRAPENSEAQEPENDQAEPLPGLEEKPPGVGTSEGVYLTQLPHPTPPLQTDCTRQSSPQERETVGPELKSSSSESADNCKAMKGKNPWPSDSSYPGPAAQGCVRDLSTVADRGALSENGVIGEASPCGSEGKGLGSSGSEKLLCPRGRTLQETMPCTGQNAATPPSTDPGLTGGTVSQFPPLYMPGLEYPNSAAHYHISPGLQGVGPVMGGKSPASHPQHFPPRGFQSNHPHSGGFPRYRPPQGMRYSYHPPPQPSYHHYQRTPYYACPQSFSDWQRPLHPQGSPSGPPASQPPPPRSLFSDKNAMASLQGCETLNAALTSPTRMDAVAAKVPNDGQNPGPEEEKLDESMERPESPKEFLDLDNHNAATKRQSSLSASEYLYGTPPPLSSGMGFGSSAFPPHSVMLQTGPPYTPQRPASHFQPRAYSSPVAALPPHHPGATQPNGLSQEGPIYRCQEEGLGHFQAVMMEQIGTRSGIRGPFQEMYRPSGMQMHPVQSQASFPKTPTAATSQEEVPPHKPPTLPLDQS
T2 sequence (Q9NSI6 whole entry): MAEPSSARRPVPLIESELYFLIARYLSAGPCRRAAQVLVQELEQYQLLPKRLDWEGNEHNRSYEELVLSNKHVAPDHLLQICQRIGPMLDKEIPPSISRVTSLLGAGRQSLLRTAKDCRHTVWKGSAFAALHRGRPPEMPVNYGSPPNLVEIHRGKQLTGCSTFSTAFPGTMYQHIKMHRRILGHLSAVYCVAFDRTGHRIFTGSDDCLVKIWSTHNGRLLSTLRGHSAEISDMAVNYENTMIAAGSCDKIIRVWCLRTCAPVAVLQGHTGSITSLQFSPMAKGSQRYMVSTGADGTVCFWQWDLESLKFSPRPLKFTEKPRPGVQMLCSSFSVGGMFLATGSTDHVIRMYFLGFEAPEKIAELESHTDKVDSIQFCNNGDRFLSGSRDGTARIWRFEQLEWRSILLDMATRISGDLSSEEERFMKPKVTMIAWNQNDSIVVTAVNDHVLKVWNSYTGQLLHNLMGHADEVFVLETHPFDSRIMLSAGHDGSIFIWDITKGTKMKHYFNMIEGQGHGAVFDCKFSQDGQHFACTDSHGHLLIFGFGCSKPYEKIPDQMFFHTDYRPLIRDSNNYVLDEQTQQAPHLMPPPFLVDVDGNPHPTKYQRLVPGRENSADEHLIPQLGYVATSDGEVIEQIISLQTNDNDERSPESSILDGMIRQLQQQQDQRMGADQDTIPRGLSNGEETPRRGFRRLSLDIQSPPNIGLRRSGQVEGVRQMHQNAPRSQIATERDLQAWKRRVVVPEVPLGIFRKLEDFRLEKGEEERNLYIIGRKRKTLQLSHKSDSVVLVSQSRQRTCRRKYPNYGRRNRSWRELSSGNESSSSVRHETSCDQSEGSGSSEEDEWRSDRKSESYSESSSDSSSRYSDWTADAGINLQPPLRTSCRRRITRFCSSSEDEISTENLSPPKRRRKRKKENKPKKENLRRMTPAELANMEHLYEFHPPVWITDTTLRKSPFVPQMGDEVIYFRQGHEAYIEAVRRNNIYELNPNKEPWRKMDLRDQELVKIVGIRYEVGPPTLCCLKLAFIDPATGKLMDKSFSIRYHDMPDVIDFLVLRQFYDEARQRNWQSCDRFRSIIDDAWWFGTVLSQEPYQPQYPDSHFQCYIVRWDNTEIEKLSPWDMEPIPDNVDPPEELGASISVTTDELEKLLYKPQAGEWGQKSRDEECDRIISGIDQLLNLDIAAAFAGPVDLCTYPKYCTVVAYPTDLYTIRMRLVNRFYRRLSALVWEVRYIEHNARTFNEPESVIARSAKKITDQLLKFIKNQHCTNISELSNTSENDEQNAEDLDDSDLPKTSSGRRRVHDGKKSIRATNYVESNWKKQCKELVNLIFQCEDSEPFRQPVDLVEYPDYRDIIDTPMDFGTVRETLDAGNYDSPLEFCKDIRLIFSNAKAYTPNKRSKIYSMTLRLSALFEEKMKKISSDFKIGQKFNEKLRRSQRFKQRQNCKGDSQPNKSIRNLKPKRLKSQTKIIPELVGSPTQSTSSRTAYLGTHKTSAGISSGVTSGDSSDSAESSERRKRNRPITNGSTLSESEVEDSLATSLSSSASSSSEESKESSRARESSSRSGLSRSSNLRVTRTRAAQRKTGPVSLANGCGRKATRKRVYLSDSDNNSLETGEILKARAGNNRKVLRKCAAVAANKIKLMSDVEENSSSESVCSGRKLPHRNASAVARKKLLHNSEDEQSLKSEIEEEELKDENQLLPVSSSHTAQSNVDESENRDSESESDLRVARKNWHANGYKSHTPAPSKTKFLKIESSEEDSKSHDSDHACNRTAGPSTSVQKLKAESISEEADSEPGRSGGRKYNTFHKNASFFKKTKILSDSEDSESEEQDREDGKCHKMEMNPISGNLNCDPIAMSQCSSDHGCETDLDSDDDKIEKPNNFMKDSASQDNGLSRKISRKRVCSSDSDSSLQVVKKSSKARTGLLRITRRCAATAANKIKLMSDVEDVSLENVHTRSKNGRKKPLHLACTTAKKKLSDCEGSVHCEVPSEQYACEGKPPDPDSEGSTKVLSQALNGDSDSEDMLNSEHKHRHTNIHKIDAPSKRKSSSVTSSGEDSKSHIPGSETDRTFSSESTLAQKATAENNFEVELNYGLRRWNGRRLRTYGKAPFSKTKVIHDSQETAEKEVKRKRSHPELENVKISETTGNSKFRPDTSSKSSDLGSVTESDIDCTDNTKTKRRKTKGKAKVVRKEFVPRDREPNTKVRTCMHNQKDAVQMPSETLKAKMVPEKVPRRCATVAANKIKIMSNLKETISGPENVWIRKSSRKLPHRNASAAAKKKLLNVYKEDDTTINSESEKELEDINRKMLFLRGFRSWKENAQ
T8 sequence (O95696 whole entry): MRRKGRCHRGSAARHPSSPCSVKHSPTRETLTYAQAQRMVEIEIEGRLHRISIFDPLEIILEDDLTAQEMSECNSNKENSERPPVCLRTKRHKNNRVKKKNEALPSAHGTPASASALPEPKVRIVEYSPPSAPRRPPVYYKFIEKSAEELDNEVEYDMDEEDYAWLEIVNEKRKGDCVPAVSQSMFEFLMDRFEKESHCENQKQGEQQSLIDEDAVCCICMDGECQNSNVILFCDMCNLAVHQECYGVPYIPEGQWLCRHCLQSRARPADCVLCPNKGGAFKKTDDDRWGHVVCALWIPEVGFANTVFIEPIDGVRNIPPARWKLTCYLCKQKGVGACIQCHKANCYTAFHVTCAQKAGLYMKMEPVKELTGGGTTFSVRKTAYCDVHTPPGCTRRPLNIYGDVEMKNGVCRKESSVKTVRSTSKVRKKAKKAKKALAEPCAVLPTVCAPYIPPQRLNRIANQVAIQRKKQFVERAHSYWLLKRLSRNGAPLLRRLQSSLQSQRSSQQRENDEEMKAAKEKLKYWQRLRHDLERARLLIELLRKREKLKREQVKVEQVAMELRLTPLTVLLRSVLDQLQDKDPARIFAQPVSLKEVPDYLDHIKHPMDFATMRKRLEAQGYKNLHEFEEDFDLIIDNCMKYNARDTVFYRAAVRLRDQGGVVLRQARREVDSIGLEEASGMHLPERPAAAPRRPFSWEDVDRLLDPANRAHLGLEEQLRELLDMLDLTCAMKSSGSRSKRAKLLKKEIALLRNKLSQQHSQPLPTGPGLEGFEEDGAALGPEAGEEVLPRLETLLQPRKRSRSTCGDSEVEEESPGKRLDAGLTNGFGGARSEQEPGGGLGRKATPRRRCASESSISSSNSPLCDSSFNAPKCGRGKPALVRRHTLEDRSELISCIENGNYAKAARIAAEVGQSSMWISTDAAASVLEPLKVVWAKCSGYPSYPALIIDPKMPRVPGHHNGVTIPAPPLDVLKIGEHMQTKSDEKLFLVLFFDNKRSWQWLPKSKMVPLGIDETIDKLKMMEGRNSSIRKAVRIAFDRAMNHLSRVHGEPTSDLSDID

As for `COc1cc2nc(-c3cc(C)oc3C)cc(NCC3CCN(c4ncc(C(=O)NO)cn4)CC3)c2cc1OC` [CM-1758, 2-[4-[[[2-(2,5-dimethyl-3-furyl)-6,7-dimethoxy-4-quinolyl]amino]methyl] -1-piperidyl]pyrimidine-5-carbohydroxamic acid], the IC50 at HDAC7 was 120 nM; at CeCR2 it was 930 nM; at BRD9, 36000 nM. The inhibition at 10 µM was found to be 89% against HDAC7; 35% on WDR9; 0% on ATAD2A; 18% against SMARCA4/BRG1; 29% at BRD2 (BD1+BD2); 72% on CeCR2. For the same molecule, the inhibition at 10 µM against BRD9 was 75%; on BRD1, 3%; on CREBBP it was 6%; at BRD3 (BD1+BD2), 29%.
On to `COc1cc2nc(-c3ccc(C)o3)cc(NCC3CCN(c4ncc(C(=O)NO)cn4)CC3)c2cc1OC` [CM-444, 2-[4-[[[6,7-dimethoxy-2-(5-methyl-2-furyl)-4-quinolyl]amino]methyl]-1-piperidyl]pyrimidine-5-carbohydroxamic acid], for which the IC50 at HDAC7 is 120 nM; against WDR9, above 50000 nM; against BRD9, 13000 nM. In addition, the inhibition at 10 µM against HDAC7 is 89%; against WDR9, 51%; against ATAD2A, 0%; against SMARCA4/BRG1 it was 0%; against BRD2 (BD1+BD2), 21%; against CeCR2, 0%. The inhibition at 10 µM against BRD9 amounted to 69%; against BRD1, 0%; at CREBBP, 0%; at BRD3 (BD1+BD2), 43%.
